Experimental data from US9938262B2, “Benzamides” (Merck Patent GmbH, priority 2011, dated 2018).
Like-named read-outs stand apart in the source and are kept apart here.

Biological target: T1, FSHR (Homo sapiens, UniProt P23945)
T1 construct: expressed in transfected cells; host or cells: CHO (Cho-FSHR-LUC-1-1-43)
Experiment: EC50 of cyclic AMP production in CHO FSHR cells + EC20 FSH (Assay A)
Assay type: cell-based
Details: for EC50: CHO FSHR cells + EC20 FSH, read-out: Assay A EC50 of cyclic AMP production; for activation at 5 µM: 1 h, effect relative to maximum response of the FSH standard
How it was run: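 cAMP HTRF ratio (665/620 nm) read after 1 h, 37 °C exposure of CHO-FSHR cells to compound in presence of EC20 FSH ([…]) and IBMX 200 μM. Responses given relative to FSH standard maximum; EC50 derived.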

T1 sequence (P23945 18-695): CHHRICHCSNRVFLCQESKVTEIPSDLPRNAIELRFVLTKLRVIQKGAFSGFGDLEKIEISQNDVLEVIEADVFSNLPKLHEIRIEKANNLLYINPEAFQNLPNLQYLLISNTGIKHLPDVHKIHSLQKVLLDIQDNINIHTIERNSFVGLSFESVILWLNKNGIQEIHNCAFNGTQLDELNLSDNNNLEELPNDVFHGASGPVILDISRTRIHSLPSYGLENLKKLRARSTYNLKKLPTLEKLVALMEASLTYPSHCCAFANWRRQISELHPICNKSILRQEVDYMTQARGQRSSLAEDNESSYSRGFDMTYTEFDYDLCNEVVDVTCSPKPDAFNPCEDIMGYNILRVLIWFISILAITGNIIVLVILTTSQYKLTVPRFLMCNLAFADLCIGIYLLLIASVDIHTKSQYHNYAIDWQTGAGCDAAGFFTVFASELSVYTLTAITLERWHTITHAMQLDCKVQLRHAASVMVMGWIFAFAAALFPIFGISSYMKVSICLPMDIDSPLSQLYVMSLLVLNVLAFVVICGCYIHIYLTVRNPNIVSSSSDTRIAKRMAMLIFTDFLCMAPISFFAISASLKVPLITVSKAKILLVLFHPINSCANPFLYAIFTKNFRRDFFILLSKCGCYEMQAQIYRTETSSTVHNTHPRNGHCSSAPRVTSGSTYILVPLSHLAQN
T1 sequence (P01215 25-116 partner): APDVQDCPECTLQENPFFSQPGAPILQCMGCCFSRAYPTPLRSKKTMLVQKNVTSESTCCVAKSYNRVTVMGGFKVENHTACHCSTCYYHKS
T1 sequence (P01225 19-129 partner): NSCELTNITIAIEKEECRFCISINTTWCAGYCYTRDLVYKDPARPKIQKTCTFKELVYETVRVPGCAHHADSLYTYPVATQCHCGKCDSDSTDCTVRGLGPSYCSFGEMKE

Structure (SMILES) | EC50 (Table 2) | further results
Cc1csc(-c2cccc(CNC(=O)c3ccc(N4CCN(c5ccccc5C)CC4)c(NC(=O)c4ccco4)c3)c2)n1 [Compound 262] | – | EC50 (Table 1): 0.1 to 1 µM
Cc1ccccc1N1CCN(c2ccc(C(=O)NCc3cccc(S(N)(=O)=O)c3)cc2NC(=O)c2ccco2)CC1 [Compound 266] | < 0.1 µM | –
Cc1ccccc1N1CCN(c2ccc(C(=O)NC3(c4cccc(C(=O)O)c4)CC3)cc2NC(=O)c2ccco2)CC1 [Compound 267] | 1 to 10 µM | –
CCNC(=O)NCCCNC(=O)c1ccc(N2CCN(c3ccccc3C)CC2)c(NC(=O)c2ccc(C)o2)c1 [Compound 270] | 0.1 to 1 µM | –
COC(=O)NCCCNC(=O)c1ccc(N2CCN(c3ccccc3C)CC2)c(NC(=O)c2ccc(C)o2)c1 [Compound 271] | 0.1 to 1 µM | –
Cc1ccc(C(=O)Nc2cc(C(=O)NCCCN3CCCC3=O)ccc2N2CCN(c3ccccc3N)CC2)o1 [Compound 272] | – | activation at 5 µM (Table 2): 30%
CC(C)(C)OC(=O)NC1CCN(c2ccc(C(=O)NCCCN3CCCC3=O)cc2NC(=O)c2coc(C3CC3)n2)CC1 [Compound 273] | 1 to 10 µM | –
Cc1ccccc1N1CCN(c2ccc(C(=O)NCCCc3c[nH]cn3)cc2NC(=O)c2coc(C3CC3)n2)CC1 [Compound 274] | 0.1 to 1 µM | –
Cc1ccccc1N1CCN(c2ccc(C(=O)NCCCn3cccn3)cc2NC(=O)c2coc(C3CC3)n2)CC1 [Compound 275] | 0.1 to 1 µM | –
COc1cccc(CNC(=O)c2ccc(N3CCN(c4ccccc4C)CC3)c(NC(=O)c3coc(C4CC4)n3)c2)c1 [Compound 276] | 0.1 to 1 µM | –
COc1ccccc1CNC(=O)c1ccc(N2CCN(c3ccccc3C)CC2)c(NC(=O)c2coc(C3CC3)n2)c1 [Compound 277] | 0.1 to 1 µM | –
Cc1ccccc1N1CCN(c2ccc(C(=O)NCCCc3ccccc3)cc2NC(=O)c2coc(C3CC3)n2)CC1 [Compound 278] | 1 to 10 µM | –
Cc1ccccc1N1CCN(c2ccc(C(=O)NCCCn3cccc3)cc2NC(=O)c2coc(C3CC3)n2)CC1 [Compound 279] | 0.1 to 1 µM | –
Cc1ccccc1N1CCN(c2ccc(C(=O)NCC(C)CN3CCCC3=O)cc2NC(=O)c2ccco2)CC1 (centres unmarked) [Compound 280] | 0.1 to 1 µM | –
CCC(CCNC(=O)c1ccc(N2CCN(c3ccccc3C)CC2)c(NC(=O)c2ccco2)c1)N1CCCC1=O (centres unmarked) [Compound 281] | 0.1 to 1 µM | –
Cc1ccccc1N1CCN(c2ccc(C(=O)NCCCC3CCOC3)cc2NC(=O)c2coc(C3CC3)n2)CC1 (centres unmarked) [Compound 282] | 0.1 to 1 µM | –
Cc1ccccc1N1CCN(c2ccc(C(N)=O)cc2NC(=O)c2ccco2)CC1 [Compound 283] | 1 to 10 µM | –
Cc1ccccc1N1CCN(c2ccc(C(=O)NCCCN3CCCC3=O)cc2NC(=O)c2cc(C3CC3)n[nH]2)CC1 [Compound 284] | 0.1 to 1 µM | –
Cc1ccccc1N1CCN(c2ccc(C(=O)NCCCN3CCCC3=O)cc2NC(=O)c2nc(C3CC3)cs2)CC1 [Compound 285] | 0.1 to 1 µM | –
Cc1ccccc1N1CCN(c2ccc(C(=O)NCCN3CCCC3=O)cc2NC(=O)c2coc(C3CC3)n2)CC1 [Compound 288] | 0.1 to 1 µM | –
Cc1ccccc1N1CCN(c2ccc(C(=O)NCCCN3C(=O)CSC3=O)cc2NC(=O)c2coc(C3CC3)n2)CC1 [Compound 289] | 0.1 to 1 µM | –

Structure (SMILES) | EC50 (Table 2) | further results
COc1ccc(CNC(=O)c2ccc(N3CCN(c4ccccc4C)CC3)c(NC(=O)c3coc(C4CC4)n3)c2)cc1OC [Compound 290] | 0.1 to 1 µM | –
Cc1ccccc1N1CCN(c2ccc(C(=O)NCCCn3ccnc3)cc2NC(=O)c2coc(C3CC3)n2)CC1 [Compound 291] | 0.1 to 1 µM | –
Cc1ccccc1N1CCN(c2ccc(C(=O)NCCCn3ccnc3C)cc2NC(=O)c2coc(C3CC3)n2)CC1 [Compound 292] | 0.1 to 1 µM | –
Cc1ccccc1N1CCN(c2ccc(C(=O)NCCc3c[nH]cn3)cc2NC(=O)c2coc(C3CC3)n2)CC1 [Compound 293] | 0.1 to 1 µM | –
Cc1ccccc1N1CCN(c2ccc(C(=O)NCC(=O)NC3CCCC3)cc2NC(=O)c2coc(C3CC3)n2)CC1 [Compound 294] | 1 to 10 µM | –
COc1cc(CNC(=O)c2ccc(N3CCN(c4ccccc4C)CC3)c(NC(=O)c3coc(C4CC4)n3)c2)cc(OC)c1 [Compound 295] | 0.1 to 1 µM | –
Cc1ccccc1N1CCN(c2ccc(C(=O)NCCCN3C(=O)CN(C)C3=O)cc2NC(=O)c2coc(C3CC3)n2)CC1 [Compound 296] | 0.1 to 1 µM | –
Cc1ccccc1N1CCN(c2ccc(C(=O)NC3CCN(S(C)(=O)=O)CC3)cc2NC(=O)c2coc(C3CC3)n2)CC1 [Compound 297] | 0.1 to 1 µM | –
Cc1ccc(C(=O)Nc2cc(C(=O)NCCCN3CCCC3=O)ccc2N2CCN(c3c(C)cccc3C)CC2)o1 [Compound 298] | 1 to 10 µM | –
Cc1cccc(C)c1N1CCN(c2ccc(C(=O)NCCCN3CCCC3=O)cc2NC(=O)c2coc(C3CC3)n2)CC1 [Compound 299] | 1 to 10 µM | –
Cc1nc(C(=O)Nc2cc(C(=O)NCCc3cnc[nH]3)ccc2N2CCN(c3ccccc3C)CC2)cs1 [Compound 301] | 1 to 10 µM | –
Cc1ccccc1N1CCN(c2ccc(C(=O)NCCc3cnc[nH]3)cc2NC(=O)C2CC2)CC1 [Compound 302] | 1 to 10 µM | –
Cc1ccc(C(=O)Nc2cc(C(=O)NCCCO)ccc2N2CCN(c3ccccc3C)CC2)o1 [Compound 303] | 1 to 10 µM | –
Cc1ccccc1N1CCN(c2ccc(C(=O)NCCN3C(=O)CCC3=O)cc2NC(=O)c2ccco2)CC1 [Compound 305] | < 0.1 µM | –
Cc1ccccc1N1CCN(c2ccc(C(=O)NCCCN3CCCC3=O)cc2NC(=O)c2cc(C3CC3)on2)CC1 [Compound 308] | 0.1 to 1 µM | –
Cc1ccccc1N1CCN(c2ccc(C(=O)N[C@H]3O[C@@H](CO)[C@@H]4OC(C)(C)O[C@@H]43)cc2NC(=O)c2coc(C3CC3)n2)CC1 [Compound 309] | 0.1 to 1 µM | –
Cc1cc(F)ccc1N1CCN(c2ccc(C(=O)NCCCN3CCCC3=O)cc2NC(=O)c2coc(C3CC3)n2)CC1 [Compound 312] | 0.1 to 1 µM | –
O=C(NCCCN1CCCC1=O)c1ccc(N2CCN(c3ccccc3Br)CC2)c(NC(=O)c2coc(C3CC3)n2)c1 [Compound 313] | 0.1 to 1 µM | –
CCOC(=O)c1c[nH]nc1NC(=O)c1ccc(N2CCN(c3ccccc3C)CC2)c(NC(=O)c2coc(C3CC3)n2)c1 [Compound 314] | – | activation at 5 µM (Table 2): 38%
Cc1ccccc1N1CCN(c2ccc(C(=O)NCCCN3CCCC3=O)cc2NC(=O)c2cc(C3CC3)nn2C)CC1 [Compound 315] | – | activation at 5 µM (Table 2): 47%
Cc1ccccc1N1CCN(c2ccc(C(=O)NCCc3cn(C)cn3)cc2NC(=O)c2coc(C3CC3)n2)CC1 [Compound 317] | 0.1 to 1 µM | –

More lines, main results first:

EC50 (Table 2) | Structure (SMILES) | further results
0.1 to 1 µM | CC(=O)NCCCCNC(=O)c1ccc(N2CCN(c3ccccc3C)CC2)c(NC(=O)c2coc(C3CC3)n2)c1 [Compound 318] | –
0.1 to 1 µM | Cc1ccccc1N1CCN(c2ccc(C(=O)NCCCN3CCOC3=O)cc2NC(=O)c2coc(C3CC3)n2)CC1 [Compound 321] | –
0.1 to 1 µM | CNCc1cccc(CNC(=O)c2ccc(N3CCN(c4ccccc4C)CC3)c(NC(=O)c3ccco3)c2)c1 [Compound 323] | –
1 to 10 µM | CCn1nc(C2CC2)cc1C(=O)Nc1cc(C(=O)NCCCN2CCCC2=O)ccc1N1CCN(c2ccccc2C)CC1 [Compound 324] | –
0.1 to 1 µM | Cc1ccccc1N1CCN(c2ccc(C(=O)NC3(c4cccc(C(N)=O)c4)CC3)cc2NC(=O)c2ccco2)CC1 [Compound 325] | –
> 10 µM | Cc1ccccc1N1CCN(c2ccc(C(=O)NCc3cccc(CN(C)C(=O)OC(C)(C)C)c3)cc2NC(=O)c2ccco2)CC1 [Compound 326] | –
0.1 to 1 µM | Cc1ccccc1N1CCN(c2ccc(C(=O)NCc3cccc(CN)c3)cc2NC(=O)c2ccco2)CC1 [Compound 327] | –
0.1 to 1 µM | Cc1ccccc1N1CCN(c2ccc(C(=O)NCCCN3C(=O)CCC3C)cc2NC(=O)c2coc(C3CC3)n2)CC1 (centres unmarked) [Compound 330] | –
< 0.1 µM | Cc1ccccc1N1CCN(c2ccc(C(=O)NCCCN3CCN(C)C3=O)cc2NC(=O)c2coc(C3CC3)n2)CC1 [Compound 331] | –
0.1 to 1 µM | Cc1ccccc1N1CCN(c2ccc(C(=O)NCCCN3C(=O)OCC3C)cc2NC(=O)c2coc(C3CC3)n2)CC1 (centres unmarked) [Compound 332] | –
0.1 to 1 µM | Cc1ccccc1N1CCN(c2ccc(C(=O)NCCC(C)N3CCCC3=O)cc2NC(=O)c2coc(C3CC3)n2)CC1 (centres unmarked) [Compound 333] | –
0.1 to 1 µM | Cc1ccc(C(=O)Nc2cc(C(=O)NCCCc3cn[nH]c3)ccc2N2CCN(c3ccccc3C)CC2)o1 [Compound 334] | –
1 to 10 µM | Cc1ccccc1N1CCN(c2ccc(C(=O)N[C@@H](CO)c3ccccc3)cc2NC(=O)c2coc(C3CC3)n2)CC1 [Compound 343] | –
1 to 10 µM | Cc1ccccc1N1CCN(c2ccc(C(=O)NC3CCN(C4CCCC4)C3)cc2NC(=O)c2ccco2)CC1 (centres unmarked) [Compound 345] | –
0.1 to 1 µM | Cc1ccccc1N1CCN(c2ccc(C(=O)NC(C)c3ccccc3)cc2NC(=O)c2coc(C3CC3)n2)CC1 (centres unmarked) [Compound 346] | –
> 10 µM | Cc1ccccc1N1CCN(c2ccc(C(=O)NCCN3C(=O)CCC3=O)cc2NC(=O)c2coc(C3CC3)n2)CC1 [Compound 347] | –
0.1 to 1 µM | Cc1ccccc1N1CCN(c2ccc(C(=O)NCc3cccc(CN(C)C)c3)cc2NC(=O)c2coc(C3CC3)n2)CC1 [Compound 348] | –
0.1 to 1 µM | Cc1ccccc1N1CCN(c2ccc(C(=O)NCCN3CCOC3=O)cc2NC(=O)c2coc(C3CC3)n2)CC1 [Compound 350] | –
0.1 to 1 µM | Cc1ccccc1N1CCN(c2ccc(C(=O)NCCCC(=O)O)cc2NC(=O)c2coc(C3CC3)n2)CC1 [Compound 351] | –
0.1 to 1 µM | Cc1ccccc1N1CCN(c2ccc(C(=O)NCCCN3C(=O)[C@@H]4C=C[C@H]3C4)cc2NC(=O)c2coc(C3CC3)n2)CC1 [Compound 352] | –
0.1 to 1 µM | Cc1ccccc1N1CCN(c2ccc(C(=O)NCCCN3C(=O)[C@@H]4CC[C@H]3C4)cc2NC(=O)c2coc(C3CC3)n2)CC1 [Compound 353] | –
0.1 to 1 µM | Cc1ccccc1N1CCN(c2ccc(C(=O)NCCCN3C(=O)CCC3(C)C)cc2NC(=O)c2coc(C3CC3)n2)CC1 [Compound 354] | –
0.1 to 1 µM | CC(=O)NCC(C)(C)CNC(=O)c1ccc(N2CCN(c3ccccc3C)CC2)c(NC(=O)c2coc(C3CC3)n2)c1 [Compound 355] | –
